BigSolDB 2.1

C#C[C@]1(O)CC[C@H]2[C@@H]3CCC4=CC(=O)CC[C@@H]4[C@H]3C(=C)C[C@@]21CC
solubility (mole fraction)
Details | in DMF | in THF | in acetone | in ethanol | in ethyl acetate | in isopropanol | in methyl acetate | in n-butanol | in n-propanol | in water
273.15 K | 0.0757 | 0.0739 | 0.012 | 0.0017 | 0.0189 | 0.00463 | 0.0104 | 0.00421 | 0.00452 | 1.38e-05
278.15 K | 0.0792 | 0.0891 | 0.0133 | 0.00209 | 0.022 | 0.00545 | 0.0119 | 0.00514 | 0.00514 | 1.64e-05
283.15 K | 0.0825 | 0.106 | 0.0148 | 0.00249 | 0.0249 | 0.00633 | 0.0135 | 0.00615 | 0.00585 | 1.92e-05
288.15 K | 0.0865 | 0.125 | 0.0165 | 0.00293 | 0.0291 | 0.00731 | 0.0153 | 0.00742 | 0.00657 | 2.24e-05
293.15 K | 0.0888 | 0.148 | 0.0184 | 0.00343 | 0.0338 | 0.00851 | 0.017 | 0.00904 | 0.00753 | 2.6e-05
298.15 K | 0.0965 | 0.173 | 0.0198 | 0.00412 | 0.0383 | 0.00994 | 0.019 | 0.0109 | 0.00865 | 3.1e-05
303.15 K | 0.0974 | 0.2 | 0.0224 | 0.00494 | 0.043 | 0.0115 | 0.0211 | 0.0126 | 0.00974 | 3.65e-05
308.15 K | 0.101 | 0.223 | 0.0248 | 0.00593 | 0.0476 | 0.0132 | 0.0229 | 0.0148 | 0.0112 | 4.25e-05
313.15 K | 0.105 | 0.263 | 0.0273 | 0.00695 | 0.0539 | 0.0154 | 0.025 | 0.0171 | 0.0124 | 4.91e-05
318.15 K | 0.109 | 0.299 | 0.03 | 0.00817 | 0.059 | 0.0178 | 0.0271 | 0.0198 | 0.0142 | 5.62e-05
323.15 K | 0.115 | 0.332 | 0.0335 | 0.00967 | 0.0648 | 0.0209 | 0.0294 | 0.0227 | 0.0159 | 6.37e-05
